In patent US11208400B2, “Substituted 6-(1H-pyrazol-1-yl)pyrimidin-4-amine derivatives and uses thereof” (Bayer Aktiengesellschaft, priority 2016, dated 2021):

The molecules below were run against T1, human Npt2a (Homo sapiens, UniProt Q06495) (assay: Npt2a activity cell based assay, membrane potential dye, CHO T-REx hNpt2a cells). Details: doxycycline-induced, depolarization by sodium phosphate influx, average or median values if tested more than once.
T1 construct: expressed in transfected cells
T1 sequence (Q06495 1-639): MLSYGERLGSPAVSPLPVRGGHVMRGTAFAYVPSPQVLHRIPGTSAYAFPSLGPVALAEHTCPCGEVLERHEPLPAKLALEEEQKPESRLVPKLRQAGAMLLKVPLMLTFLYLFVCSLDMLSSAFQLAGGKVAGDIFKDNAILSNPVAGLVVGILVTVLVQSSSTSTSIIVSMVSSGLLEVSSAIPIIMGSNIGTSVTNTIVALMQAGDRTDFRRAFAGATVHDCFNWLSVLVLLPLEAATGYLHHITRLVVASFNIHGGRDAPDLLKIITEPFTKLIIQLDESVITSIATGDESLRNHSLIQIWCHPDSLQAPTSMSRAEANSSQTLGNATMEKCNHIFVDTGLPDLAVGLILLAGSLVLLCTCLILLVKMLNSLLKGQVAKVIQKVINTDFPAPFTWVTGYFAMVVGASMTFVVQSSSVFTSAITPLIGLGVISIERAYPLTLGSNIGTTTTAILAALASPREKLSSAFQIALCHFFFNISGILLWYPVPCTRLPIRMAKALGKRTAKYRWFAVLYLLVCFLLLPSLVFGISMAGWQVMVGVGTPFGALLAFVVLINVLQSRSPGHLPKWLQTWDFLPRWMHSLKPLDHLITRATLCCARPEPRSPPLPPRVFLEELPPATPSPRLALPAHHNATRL
Procedure, shortened: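 Doxycycline-induced (0.5 μg/mL, 24 h) CHO T-REx cells were loaded with membrane potential dye in sodium-free NHE buffer (pH 7.4) and exposed to compound (50 μM–1 nM, 5 min, room temperature).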
Work on Cc1nn(-c2cc(Nc3c(C)c(-c4ccc(F)cc4)nn3CC3CC3)ncn2)c(C)c1CC1(O)CC1 [Example 287, 1-{[1-(6-{[1-(cyclopropylmethyl)-3-(4-fluorophenyl)-4-methyl-1H-pyrazol-5-yl]amino}pyrimidin-4-yl)-3,5-dimethyl-1H-pyrazol-4-yl]methyl}cyclopropanol] yielded an IC50 of 5 nM. For Cc1nn(-c2ccc(F)cc2)c(C)c1Nc1cc(-n2nc3ccccc3c2C)ncn1 [Example 103, N-[1-(4-fluorophenyl)-3,5-dimethyl-1H-pyrazol-4-yl]-6-(3-methyl-2H-indazol-2-yl)pyrimidin-4-amine], the IC50 was 64 nM. With CCc1c(Nc2cc(-n3cc4c(n3)CN(C(=O)OC(C)(C)C)CC4)ncn2)n[nH]c1-c1ccc(F)cc1 [Example 26, tert-butyl 2-(6-{[4-ethyl-5-(4-fluorophenyl)-1H-pyrazol-3-yl]amino}pyrimidin-4-yl)-2,4,5,7-tetrahydro-6H-pyrazolo[3,4-c]pyridine-6-carboxylate] the IC50 was 460 nM. In the case of COCCn1nc(-c2ccc(F)cn2)c(C)c1Nc1cc(-n2nc(C)c(C(=O)N(C)C)c2C)ncn1 [Example 557, 1-(6-{[3-(5-fluoropyridin-2-yl)-1-(2-methoxyethyl)-4-methyl-1H-pyrazol-5-yl]amino}pyrimidin-4-yl)-N,N,3,5-tetramethyl-1H-pyrazole-4-carboxamide], the IC50 is reported as 1000 nM. CCc1c(-c2ccc(F)cc2)nn(C)c1Nc1cc(-n2nc(C)c(Cl)c2C)ncn1 [Example 97, 6-(4-chloro-3,5-dimethyl-1H-pyrazol-1-yl)-N-[4-ethyl-3-(4-fluorophenyl)-1-methyl-1H-pyrazol-5-yl]pyrimidin-4-amine] showed an IC50 of 75 nM. With Cc1c(-c2ccc(F)cc2)nn(C)c1Nc1cc(-n2cc(C(F)(F)F)cn2)ncn1 [Example 427, N-[3-(4-fluorophenyl)-1,4-dimethyl-1H-pyrazol-5-yl]-6-[4-(trifluoromethyl)-1H-pyrazol-1-yl]pyrimidin-4-amine] the IC50 was 15 nM. For Cc1nn(-c2cc(Nc3c(C)c(-c4ccc(F)cc4)nn3CC3CC3)ncn2)c(C)c1OC(=O)N(C)C [Example 520, 1-(6-{[1-(cyclopropylmethyl)-3-(4-fluorophenyl)-4-methyl-1H-pyrazol-5-yl]amino}pyrimidin-4-yl)-3,5-dimethyl-1H-pyrazol-4-yl dimethylcarbamate], the IC50 was 1600 nM. Work on CCc1c(Nc2cc(-n3nc(C)c(C#N)c3C)ncn2)nn(C)c1-c1ccc(F)cc1 [Example 112, 1-(6-{[4-ethyl-5-(4-fluorophenyl)-1-methyl-1H-pyrazol-3-yl]amino}pyrimidin-4-yl)-3,5-dimethyl-1H-pyrazole-4-carbonitrile] yielded an IC50 of 59.5 nM. In the case of Cc1ccc(-c2nn(CC3CC3)c(Nc3cc(-n4nc(C)cc4C(F)F)ncn3)c2C)cn1 [Example 415, N-[1-(cyclopropylmethyl)-4-methyl-3-(6-methylpyridin-3-yl)-1H-pyrazol-5-yl]-6-[5-(difluoromethyl)-3-methyl-1H-pyrazol-1-yl]pyrimidin-4-amine], the IC50 is reported as 1150 nM. Cc1cc(C)n(-c2cc(Nc3nn(C)c(-c4ccc(F)cc4)c3CN3CC(C(F)(F)F)C3)ncn2)n1 [Example 275, 6-(3,5-dimethyl-1H-pyrazol-1-yl)-N-[5-(4-fluorophenyl)-1-methyl-4-{[3-(trifluoromethyl)azetidin-1-yl]methyl}-1H-pyrazol-3-yl]pyrimidin-4-amine] gave an IC50 of 1050 nM. CCOC(=O)c1c(C)nn(-c2cc(Nc3[nH]nc(-c4ccc(F)cc4)c3C3CC3)ncn2)c1C [Example 15, ethyl 1-(6-{[4-cyclopropyl-3-(4-fluorophenyl)-1H-pyrazol-5-yl]amino}pyrimidin-4-yl)-3,5-dimethyl-1H-pyrazole-4-carboxylate] was tested, and the IC50 was 72 nM. With CNc1ccc(-c2nn(CC3CC3)c(Nc3cc(-n4nc(C)cc4C(F)F)ncn3)c2C)cc1 [Example 487, N-{1-(cyclopropylmethyl)-4-methyl-3-[4-(methylamino)phenyl]-1H-pyrazol-5-yl}-6-[5-(difluoromethyl)-3-methyl-1H-pyrazol-1-yl]pyrimidin-4-amine] the IC50 was 150 nM. Molecule Cc1nn(-c2cc(Nc3c(Cl)c(-c4ccc(F)cc4F)nn3C)ncn2)c2ccccc12 [Example 49, N-[4-chloro-3-(2,4-difluorophenyl)-1-methyl-1H-pyrazol-5-yl]-6-(3-methyl-1H-indazol-1-yl)pyrimidin-4-amine] has an IC50 of 310 nM. Cc1cc(C)n(-c2cc(Nc3c(C)c(-c4ccc(F)cc4)nn3C)ncn2)n1 [Example 71, 6-(3,5-dimethyl-1H-pyrazol-1-yl)-N-[3-(4-fluorophenyl)-1,4-dimethyl-1H-pyrazol-5-yl]pyrimidin-4-amine] showed an IC50 of 50 nM. CCc1c(-c2ccc(F)cc2)nn(C)c1Nc1cc(-n2nc(C)cc2C)ncn1 [Example 12, 6-(3,5-dimethyl-1H-pyrazol-1-yl)-N-[4-ethyl-3-(4-fluorophenyl)-1-methyl-1H-pyrazol-5-yl]pyrimidin-4-amine] was tested, and the IC50 was 50 nM. Work on Cc1nn(-c2cc(Nc3c(C)nn(-c4ccc(C#N)cc4)c3C)ncn2)c(C)c1CC(C)(C)O [Example 301, 4-[4-({6-[4-(2-hydroxy-2-methylpropyl)-3,5-dimethyl-1H-pyrazol-1-yl]pyrimidin-4-yl}amino)-3,5-dimethyl-1H-pyrazol-1-yl]benzonitrile] yielded an IC50 of 92 nM. Molecule COc1c(Nc2cc(-n3nc(C)c(Cl)c3C)ncn2)nn(C)c1-c1ccc(C#N)cc1 [Example 540, 4-(3-{[6-(4-chloro-3,5-dimethyl-1H-pyrazol-1-yl)pyrimidin-4-yl]amino}-4-methoxy-1-methyl-1H-pyrazol-5-yl)benzonitrile] has an IC50 of 17 nM. CCOC(=O)c1c(C)nn(-c2cc(Nc3nn(CC4CC4)c(-c4ccc(F)cc4)c3Cl)ncn2)c1C [Example 153, ethyl 1-(6-{[4-chloro-1-(cyclopropylmethyl)-5-(4-fluorophenyl)-1H-pyrazol-3-yl]amino}pyrimidin-4-yl)-3,5-dimethyl-1H-pyrazole-4-carboxylate] was tested, and the IC50 was 410 nM. Cc1nn(-c2cc(Nc3c(C)c(-c4ccc(F)cc4)nn3CC3CC3)ncn2)c(C)c1S(C)(=O)=O [Example 423, N-[1-(cyclopropylmethyl)-3-(4-fluorophenyl)-4-methyl-1H-pyrazol-5-yl]-6-[3,5-dimethyl-4-(methylsulfonyl)-1H-pyrazol-1-yl]pyrimidin-4-amine] showed an IC50 of 55 nM. CCc1c(-c2ccc(F)cc2)n[nH]c1Nc1cc(-n2nc(C)cc2C)ncn1 [Example 13, 6-(3,5-dimethyl-1H-pyrazol-1-yl)-N-[4-ethyl-3-(4-fluorophenyl)-1H-pyrazol-5-yl]pyrimidin-4-amine] gave an IC50 of 61.9 nM. In the case of Cc1cc(C)n(-c2cc(Nc3n[nH]c(-c4ccc(F)cc4)c3C3CC3)ncn2)n1 [Example 7, N-[4-cyclopropyl-5-(4-fluorophenyl)-1H-pyrazol-3-yl]-6-(3,5-dimethyl-1H-pyrazol-1-yl)pyrimidin-4-amine], the IC50 is reported as 36 nM. CCc1c(Nc2cc(-n3nc(C)c(CC(C)(C)O)c3C)ncn2)nn(C)c1-c1ccc(F)cc1 [Example 238, 1-[1-(6-{[4-ethyl-5-(4-fluorophenyl)-1-methyl-1H-pyrazol-3-yl]amino}pyrimidin-4-yl)-3,5-dimethyl-1H-pyrazol-4-yl]-2-methylpropan-2-ol] gave an IC50 of 83 nM. Work on Cc1c(-c2ccc(F)cc2)nn(CC2CC2)c1Nc1cc(-n2nc(C)c3ccncc32)ncn1 [Example 204, N-[1-(cyclopropylmethyl)-3-(4-fluorophenyl)-4-methyl-1H-pyrazol-5-yl]-6-(3-methyl-1H-pyrazolo[3,4-c]pyridin-1-yl)pyrimidin-4-amine] yielded an IC50 of 3 nM. Molecule CCOC(=O)c1c(C)nn(-c2cc(Nc3nn(C)c(-c4ccc(Cl)cc4)c3C)ncn2)c1C [Example 353, ethyl 1-(6-{[5-(4-chlorophenyl)-1,4-dimethyl-1H-pyrazol-3-yl]amino}pyrimidin-4-yl)-3,5-dimethyl-1H-pyrazole-4-carboxylate] has an IC50 of 5 nM. Cc1nn(-c2cc(Nc3c(Cl)c(-c4ccc(F)cc4)nn3CC3CC3)ncn2)c(C)c1Cl [Example 185, N-[4-chloro-1-(cyclopropylmethyl)-3-(4-fluorophenyl)-1H-pyrazol-5-yl]-6-(4-chloro-3,5-dimethyl-1H-pyrazol-1-yl)pyrimidin-4-amine] was tested, and the IC50 was 27 nM. With Cc1cc(C(F)F)n(-c2cc(Nc3c(C)c(-c4ccc(F)cn4)nn3CC3CC3)ncn2)n1 [Example 422, N-[1-(cyclopropylmethyl)-3-(5-fluoropyridin-2-yl)-4-methyl-1H-pyrazol-5-yl]-6-[5-(difluoromethyl)-3-methyl-1H-pyrazol-1-yl]pyrimidin-4-amine] the IC50 was 240 nM. Molecule CCc1c(-c2ccc(F)cc2)nn(C)c1Nc1cc(-n2nc(C)c(Br)c2C)ncn1 [Example 265, 6-(4-bromo-3,5-dimethyl-1H-pyrazol-1-yl)-N-[4-ethyl-3-(4-fluorophenyl)-1-methyl-1H-pyrazol-5-yl]pyrimidin-4-amine] has an IC50 of 180 nM. With Cc1nn(-c2cc(Nc3c(C)c(-c4ccncc4)nn3CC3CC3)ncn2)c(C)c1C(C)(C)O [Example 380, 2-[1-(6-{[1-(cyclopropylmethyl)-4-methyl-3-(pyridin-4-yl)-1H-pyrazol-5-yl]amino}pyrimidin-4-yl)-3,5-dimethyl-1H-pyrazol-4-yl]propan-2-ol] the IC50 was 170 nM.
